Active and inactive are the calls of the source. No cut-off for these calls is given here.
Legend:
[1] = molecular target: Tubulin (Homo sapiens) (UniProt P68371+Q9H4B7+P0DPH7+P68366+Q13509+Q71U36+P04350+Q3ZCM7+P07437+P68363+Q9BQE3+Q6PEY2+Q13885+Q9BVA1+Q9BUF5); experiment: Inhibition of tubulin polymerization in human MCF7 cells at 2 uM after 24 hrs by FITC-conjugated immunostaining assay; format: cell-based
[2] = tested on: MCF7; experiment: Inhibition of HDAC1 protein expression in human MCF7 cells at 2 uM after 24 hrs by Western blotting; format: functional, cell-based
[3] = tested on: MCF7; experiment: Inhibition of HDAC2 protein expression in human MCF7 cells at 2 uM after 24 hrs by Western blotting; format: functional, cell-based
[4] = tested on: MCF7; experiment: Inhibition of HDAC3 protein expression in human MCF7 cells at 2 uM after 24 hrs by Western blotting; format: functional, cell-based
[5] = tested on: MCF7; experiment: Inhibition of HDAC8 protein expression in human MCF7 cells at 2 uM after 24 hrs by Western blotting; format: functional, cell-based
[6] = tested on: MCF7; experiment: Increase in p21 protein level in human MCF7 cells at 2 uM after 24 hrs by Western blotting; format: functional, cell-based
[7] = tested on: MCF7; experiment: Induction of apoptosis in human MCF7 cells assessed as PARP-cleavage at 8 uM after 24 hrs by Western blot analysis; format: functional, cell-based
[8] = tested on: MCF7; experiment: Induction of apoptosis in human MCF7 cells assessed as caspase-7 activation at 8 uM after 24 hrs by Western blot analysis; format: functional, cell-based
[9] = tested on: MCF7; experiment: Anticancer activity against human MCF7 cells by SRB method; format: functional
[10] = tested on: A2780; experiment: Anticancer activity against human A2780 cells by SRB method; format: functional
[11] = tested on: COLO 205; experiment: Anticancer activity against human COLO205 cells by SRB method; format: functional
[12] = tested on: SiHa; experiment: Anticancer activity against human SiHa cells by SRB method; format: functional
[13] = tested on: KB; experiment: Anticancer activity against human KB cells by SRB method; format: functional
[14] = tested on: MCF7; experiment: Anticancer activity against human MCF7 cells assessed as cell death at 2 uM after 24 hrs by MTT assay; format: functional
[15] = tested on: MCF7; experiment: Induction of cell cycle arrest in human MCF7 cells assessed as accumulation of cells in G0 phase at 2 uM after 24 hrs by flow cytometry relative to untreated control; format: functional
[16] = tested on: MCF7; experiment: Induction of cell cycle arrest in human MCF7 cells assessed as accumulation of cells in G1 phase at 2 uM after 24 hrs by flow cytometry relative to untreated control; format: functional
[17] = tested on: MCF7; experiment: Induction of cell cycle arrest in human MCF7 cells assessed as accumulation of cells in S phase at 2 uM after 24 hrs by flow cytometry relative to untreated control; format: functional
[18] = tested on: MCF7; experiment: Induction of cell cycle arrest in human MCF7 cells assessed as accumulation of cells in G2/M phase at 2 uM after 24 hrs by flow cytometry relative to untreated control; format: functional
[19] = tested on: MCF7; experiment: Induction of cell cycle arrest in human MCF7 cells assessed as accumulation of cells in G0 phase at 4 uM after 24 hrs by flow cytometry relative to untreated control; format: functional
[20] = tested on: MCF7; experiment: Induction of cell cycle arrest in human MCF7 cells assessed as accumulation of cells in G1 phase at 4 uM after 24 hrs by flow cytometry relative to untreated control; format: functional
[21] = tested on: MCF7; experiment: Induction of cell cycle arrest in human MCF7 cells assessed as accumulation of cells in S phase at 4 uM after 24 hrs by flow cytometry relative to untreated control; format: functional
[22] = tested on: MCF7; experiment: Induction of cell cycle arrest in human MCF7 cells assessed as accumulation of cells in G2/M phase at 4 uM after 24 hrs by flow cytometry relative to untreated control; format: functional
[23] = tested on: MCF7; experiment: Induction of cell cycle arrest in human MCF7 cells assessed as accumulation of cells in G0 phase at 8 uM after 24 hrs by flow cytometry relative to untreated control; format: functional
[24] = tested on: MCF7; experiment: Induction of cell cycle arrest in human MCF7 cells assessed as accumulation of cells in G1 phase at 8 uM after 24 hrs by flow cytometry relative to untreated control; format: functional
[25] = tested on: MCF7; experiment: Induction of cell cycle arrest in human MCF7 cells assessed as accumulation of cells in S phase at 8 uM after 24 hrs by flow cytometry relative to untreated control; format: functional
[26] = tested on: MCF7; experiment: Induction of cell cycle arrest in human MCF7 cells assessed as accumulation of cells in G2/M phase at 8 uM after 24 hrs by flow cytometry relative to untreated control; format: functional
[27] = tested on: MCF7; experiment: Induction of cell cycle arrest in human MCF7 cells assessed as accumulation of cells in G0 phase at 2 uM after 24 hrs by flow cytometry (reference value: 2.9%); format: functional
[28] = tested on: MCF7; experiment: Induction of cell cycle arrest in human MCF7 cells assessed as accumulation of cells in G1 phase at 2 uM after 24 hrs by flow cytometry (reference value: 46%); format: functional
[29] = tested on: MCF7; experiment: Induction of cell cycle arrest in human MCF7 cells assessed as accumulation of cells in S phase at 2 uM after 24 hrs by flow cytometry (reference value: 14.87%); format: functional
[30] = tested on: MCF7; experiment: Induction of cell cycle arrest in human MCF7 cells assessed as accumulation of cells in G2/M phase at 2 uM after 24 hrs by flow cytometry (reference value: 36.23%); format: functional
[31] = tested on: MCF7; experiment: Induction of cell cycle arrest in human MCF7 cells assessed as accumulation of cells in G0 phase at 4 uM after 24 hrs by flow cytometry (reference value: 3.22%); format: functional
[32] = tested on: MCF7; experiment: Induction of cell cycle arrest in human MCF7 cells assessed as accumulation of cells in G1 phase at 4 uM after 24 hrs by flow cytometry (reference value: 65.58%); format: functional
[33] = tested on: MCF7; experiment: Induction of cell cycle arrest in human MCF7 cells assessed as accumulation of cells in S phase at 4 uM after 24 hrs by flow cytometry (reference value: 5.55%); format: functional
[34] = tested on: MCF7; experiment: Induction of cell cycle arrest in human MCF7 cells assessed as accumulation of cells in G2/M phase at 4 uM after 24 hrs by flow cytometry (reference value: 25.65%); format: functional
[35] = tested on: MCF7; experiment: Induction of cell cycle arrest in human MCF7 cells assessed as accumulation of cells in G0 phase at 8 uM after 24 hrs by flow cytometry (reference value: 3.22%); format: functional
[36] = tested on: MCF7; experiment: Induction of cell cycle arrest in human MCF7 cells assessed as accumulation of cells in G1 phase at 8 uM after 24 hrs by flow cytometry (reference value: 65.58%); format: functional
[37] = tested on: MCF7; experiment: Induction of cell cycle arrest in human MCF7 cells assessed as accumulation of cells in S phase at 8 uM after 24 hrs by flow cytometry (reference value: 5.55%); format: functional
[38] = tested on: MCF7; experiment: Induction of cell cycle arrest in human MCF7 cells assessed as accumulation of cells in G2/M phase at 8 uM after 24 hrs by flow cytometry (reference value: 25.65%); format: functional
[39] = tested on: ZR-75-1; experiment: Anticancer activity against human ZR-75-1 cells by SRB method; format: functional
[40] = tested on: A549; experiment: Anticancer activity against human A549 cells by SRB method; format: functional

COc1cc2c(cc1OCCCCCOc1cccc(C(c3c[nH]c4ccccc34)c3c[nH]c4ccccc34)c1)N=C[C@@H]1CCCN1C2=O
inhibition [1]: Active
inhibition [2]: Active
inhibition [3]: Active
inhibition [4]: Active
inhibition [5]: Active
Activity [6]: Active
Activity [7]: Active
Activity [8]: Active
GI50 [9]: 190 nM
GI50 [10]: 180 nM
GI50 [11]: 0.16 µM
GI50 [12]: 2200 nM
GI50 [13]: 2300 nM
Activity [14]: 50%
Activity [15]: 2.98%
Activity [16]: 38.86%
Activity [17]: 15.42%
Activity [18]: 42.67%
Activity [19]: 10.7%
Activity [20]: 70.29%
Activity [21]: 8.26%
Activity [22]: 10.74%
Activity [23]: 24.81%
Activity [24]: 60.92%
Activity [25]: 5.26%
Activity [26]: 8.99%
Activity [27]: 3.47%
Activity [28]: 39.36%
Activity [29]: 14.56%
Activity [30]: 42.61%
Activity [31]: 10.4%
Activity [32]: 71.85%
Activity [33]: 8.67%
Activity [34]: 9.08%
Activity [35]: 24.25%
Activity [36]: 61.55%
Activity [37]: 4.82%
Activity [38]: 9.38%

COc1cc2c(cc1OCCCCCOc1ccc(C(c3c[nH]c4ccccc34)c3c[nH]c4ccccc34)cc1)N=C[C@@H]1CCCN1C2=O
inhibition [1]: Active
inhibition [2]: Active
inhibition [3]: Active
inhibition [4]: Active
inhibition [5]: Active
Activity [6]: Active
Activity [7]: Active
Activity [8]: Active
GI50 [9]: 140 nM
GI50 [39]: 120 nM
GI50 [10]: 110 nM
GI50 [11]: 26.1 µM
GI50 [12]: 180 nM
GI50 [40]: 2400 nM
GI50 [13]: 130 nM
Activity [14]: 50%
Activity [15]: 3.57%
Activity [16]: 40.67%
Activity [17]: 9.08%
Activity [18]: 46.67%
Activity [19]: 16.11%
Activity [20]: 68.33%
Activity [21]: 6.95%
Activity [22]: 8.6%
Activity [23]: 50.15%
Activity [24]: 46.11%
Activity [25]: 2.32%
Activity [26]: 1.41%
Activity [27]: 3.96%
Activity [28]: 41.51%
Activity [29]: 9.34%
Activity [30]: 45.19%
Activity [31]: 16.45%
Activity [32]: 68.23%
Activity [33]: 6.97%
Activity [34]: 8.35%
Activity [35]: 51.96%
Activity [36]: 44.26%
Activity [37]: 2.04%
Activity [38]: 1.75%

Source: ChEMBL document CHEMBL1938244, “Synthesis, anticancer activity and apoptosis inducing ability of bisindole linked pyrrolo[2,1-c][1,4]benzodiazepine conjugates” (2012)
